These results are taken from US20050085447A1, “Pyrido[3,4-d]pyrimidine derivatives as matrix metalloproteinase-13 inhibitors” (Warner-Lambert Company LLC, priority 2003, published 2005).

One data set has as its target T1, MMP-3 catalytic domain (Homo sapiens, UniProt P08254).
T1 construct: MMP-1 full-length, MMP-3 catalytic domain, MMP-7 full-length
The data set is described as follows: Thiopeptolide substrate hydrolysis inhibition assay, MMP-3 catalytic domain. The following applies: MES buffer pH 6.0, read-out: MMP-3CD IC50. The format is biochemical. From the text:
(§1) The assay methods of Biological Examples 1-4 measure the amount by which a test compound reduces the hydrolysis of a thiopeptolide substrate catalyzed by a matrix metalloproteinase enzyme or catalytic domain thereof. It has been shown previously by Ye Qi-Zhuang, Hupe D., and Johnson L. (Current Medicinal Chemistry, 1996;3:407-418) that inhibitor activity against a catalytic domain of an MMP is predictive of the inhibitor activity against the respective full-length MMP enzyme. The methods described below for the inhibition of MMP-13 may also be adapted and used to determine the ability of the compounds of Formula I to inhibit other matrix metalloproteases such as MMP-1, MMP-2, MMP-3, MMP-7, MMP-8, MMP-9, MMP-12, MMP-14, MMP-17, and the like.
(§2) Thiopeptolide substrates show virtually no decomposition or hydrolysis at or below neutral pH in the absence of a matrix metalloproteinase enzyme. A typical thiopeptolide substrate commonly utilized for assays is Ac-Pro-Leu-Gly-thioester-Leu-Leu-Gly-OEt. A 100 μL assay mixture will contain 50 mM of N-2-hydroxyethylpiperazine-N′-2-ethanesulfonic acid buffer (“HEPES,” pH 7.0), 10 mM CaCl2, 100 μM thiopeptolide substrate, and 1 mM 5,5′-dithio-bis-(2-nitro-benzoic acid) (DTNB). […] The change in absorbance at 405 nm is monitored on a Thermo Max microplate reader (molecular Devices, Menlo Park, Calif.) at room temperature (22° C.). The calculation of the amount of hydrolysis of the thiopeptolide substrate is based on E412=13600 M^−1 cm^−1 for the DTNB-derived product 3-carboxy-4-nitrothiophenoxide. Assays are carried out with and without matrix metalloproteinase inhibitor compounds, and the amount of hydrolysis is compared for a determination of inhibitory activity of the test compounds.
(§3) Test compounds were evaluated at various concentrations in order to determine their respective IC50 values, the micromolar concentration of compound required to cause a 50% inhibition of catalytic activity of the respective enzyme.
It should be appreciated that the assay buffer used with MMP-3CD was 50 mM N-morpholinoethane sulfonate (“MES”) at pH 6.0 rather than the HEPES buffer at pH 7.0 described above.
(§4) Some representative compounds of Formula I have been evaluated for their ability to inhibit MMP-13, MMP-1FL, MMP-3CD, MMP-7FL, MMP-8FL, MMP-9FL, MMP-12CD, MMP-14CD, and/or MMP-17CD, wherein FL means full-length enzyme and CD means a catalytic domain of the full-length enzyme. Test compounds can be evaluated at various concentrations in order to determine their respective IC50 values, the micromolar concentration of compound required to cause a 50% inhibition of the hydrolytic activity of the respective enzyme.
(§5) Certain compounds of Formula I have also been assayed with MMP-1 full-length, MMP-3 catalytic domain, MMP-7 full-length, MMP-8 full-length, MMP-9 full-length, MMP-12 catalytic domain, MMP-14 catalytic domain, and MMP-17 catalytic domain. […] In Biological Table 2, the compound example numbers for the Compound Examples are indicated in the column labelled “Ex. No.”

The next data set has as its target T2, MMP-8 full-length (Homo sapiens, UniProt P22894).
T2 construct: MMP-7 full-length, MMP-8 full-length, MMP-9 full-length
Briefly: Thiopeptolide substrate hydrolysis inhibition assay, MMP-8 full-length. The format is biochemical. Particulars: full-length enzyme; read-out: MMP-8FL IC50.
Text: as §1, §2, §3, §4, §5

The target in a further data set is T3, MMP-1 full-length (Homo sapiens, UniProt P03956).
T3 construct: have also been assayed with MMP-1 full-length
T3 sequence (P03956 100-469): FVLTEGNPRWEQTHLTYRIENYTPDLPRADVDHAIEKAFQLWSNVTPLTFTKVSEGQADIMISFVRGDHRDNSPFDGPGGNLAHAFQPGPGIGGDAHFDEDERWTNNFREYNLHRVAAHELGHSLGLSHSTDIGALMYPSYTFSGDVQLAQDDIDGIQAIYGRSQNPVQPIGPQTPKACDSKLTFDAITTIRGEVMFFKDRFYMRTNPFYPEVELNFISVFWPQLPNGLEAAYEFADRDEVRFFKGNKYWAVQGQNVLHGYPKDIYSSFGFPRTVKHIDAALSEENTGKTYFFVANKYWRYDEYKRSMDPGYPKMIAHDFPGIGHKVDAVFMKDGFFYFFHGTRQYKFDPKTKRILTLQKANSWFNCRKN
Briefly: Thiopeptolide substrate hydrolysis inhibition assay, MMP-1 full-length. Format: biochemical. The following applies: full-length enzyme; read-out: MMP-1FL IC50.
Text: as §1, §2, §3, §4, §5

A further data set concerns the target T4, MMP-14 catalytic domain (Homo sapiens, UniProt P50281).
T4 construct: MMP-14 catalytic domain, and MMP-17 catalytic domain
Briefly: Thiopeptolide substrate hydrolysis inhibition assay, MMP-14 catalytic domain. Format: biochemical. The following applies: read-out: MMP-14CD IC50.
Text: as §1, §2, §3, §4, §5

Data set [1] is described as follows: Pharmacokinetics in Sprague-Dawley rats (single IV or oral dose). Format: in vivo, rat. From the text: For comparison purposes, a reference compound was separately characterized according to its pharmacokinetics properties except AUC in a similar manner. The reference compound (“Reference Compound 1”) was the compound of Example 188 of PCT International Patent Application Publication number WO 02/064572 A1, which is also described in PCT International Patent Application Publication number WO 02/064080 A2 in Table IVb on page 76, 5th species from the top. […] Reference Compound 1 is named 4-[6-(4-methoxy-benzylcarbamoyl)- 1 -methyl-2,4-dioxo- 1,4-dihydro-2H-pyrido[3,4-d]pyrimidin-3-ylmethyl]-benzoic acid, and has the structure drawn below: [drawing 98]

The next data set addresses T5, MMP-7 full-length (Homo sapiens, UniProt P09237).
T5 construct: MMP-3 catalytic domain, MMP-7 full-length, MMP-8 full-length
T5 sequence (P09237 95-267): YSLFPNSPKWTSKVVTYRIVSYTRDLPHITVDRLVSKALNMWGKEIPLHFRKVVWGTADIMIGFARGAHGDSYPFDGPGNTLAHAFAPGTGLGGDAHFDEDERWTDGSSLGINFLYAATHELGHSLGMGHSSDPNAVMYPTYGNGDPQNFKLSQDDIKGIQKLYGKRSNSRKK
Briefly: Thiopeptolide substrate hydrolysis inhibition assay, MMP-7 full-length. The format is biochemical. Particulars: full-length enzyme; read-out: MMP-7FL IC50.
Text: as §1, §2, §3, §4, §5

As a reminder, the IC50 is the concentration that inhibits the measured activity by half.

T1 sequence (P08254 100-272 limits assumed): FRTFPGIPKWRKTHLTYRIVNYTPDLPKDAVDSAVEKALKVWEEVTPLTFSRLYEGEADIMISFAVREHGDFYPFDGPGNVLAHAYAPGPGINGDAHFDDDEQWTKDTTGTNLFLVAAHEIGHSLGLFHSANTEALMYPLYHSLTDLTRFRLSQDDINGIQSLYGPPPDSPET
T2 sequence (P22894 101-467): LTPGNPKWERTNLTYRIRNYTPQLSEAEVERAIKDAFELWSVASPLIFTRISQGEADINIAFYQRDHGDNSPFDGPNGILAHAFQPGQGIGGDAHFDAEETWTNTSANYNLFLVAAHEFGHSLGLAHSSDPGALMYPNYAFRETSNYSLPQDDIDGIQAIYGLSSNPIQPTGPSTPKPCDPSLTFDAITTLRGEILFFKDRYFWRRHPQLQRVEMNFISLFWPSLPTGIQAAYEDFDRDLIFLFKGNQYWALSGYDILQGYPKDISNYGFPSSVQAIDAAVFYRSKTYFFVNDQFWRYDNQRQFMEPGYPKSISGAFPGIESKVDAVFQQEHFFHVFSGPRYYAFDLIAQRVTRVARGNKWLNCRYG

Regarding `COc1ccc(CNC(=O)c2cc3c(=O)n(Cc4ccc(C(=O)O)cc4)cnc3cn2)cc1` [Compound Example 1, 4-[6-(4-methoxy-benzylcarbamoyl)-4-oxo-4H-pyrido[3,4-d]pyrimidin-3-ylmethyl]-benzoic acid], the IC50 at MMP-3 catalytic domain was 26 µM; at MMP-8 full-length, > 100 µM; at MMP-1 full-length, > 100 µM; on MMP-14 catalytic domain, > 100 µM; on MMP-7 full-length, > 100 µM. Besides, the clearance in data set [1] (rat, blood, Sprague-Dawley rats, single 5 mg/kg intravenous dose, read-out: IV CL) worked out at 7.1 mL/min/kg. For the same molecule, the half-life in data set [1] (rat, blood, Sprague-Dawley rats, single 5 mg/kg intravenous dose, read-out: IV T1/2 (converted)) was 2.1 h. Also, the “PO AUC (ng/hr/mL)” value in data set [1] (rats, single 5 mg/kg oral dose) is on record as 3,750 ng/hr/mL.
